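These data come from cells grown in 96-well plates and exposed to compound for 48 hours at five concentrations. Abbreviation: GI50, concentration required for 50% inhibition of growth. The concentration for full growth arrest is given as TGI.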
Columns and labels:
Experiment in all cases: growth of human tumour cells (NCI), 48 h
SK-OV-3 ovarian = test system: SK-OV-3 ovarian
U251 CNS = test system: U251 CNS
NCI/ADR-RES ovarian = test system: NCI/ADR-RES ovarian
CCRF-CEM leukemia = test system: CCRF-CEM leukemia
HL-60(TB) leukemia = test system: HL-60(TB) leukemia
HCT-116 colon = test system: HCT-116 colon
OVCAR-4 ovarian = test system: OVCAR-4 ovarian
SR leukemia = test system: SR leukemia
786-0 renal = test system: 786-0 renal
UACC-62 melanoma = test system: UACC-62 melanoma
HT29 colon = test system: HT29 colon
SK-MEL-5 melanoma = test system: SK-MEL-5 melanoma
MOLT-4 leukemia = test system: MOLT-4 leukemia
UO-31 renal = test system: UO-31 renal
OVCAR-3 ovarian = test system: OVCAR-3 ovarian
LOX IMVI melanoma = test system: LOX IMVI melanoma
MDA-MB-231 breast = test system: MDA-MB-231 breast
HCC-2998 colon = test system: HCC-2998 colon
NCI-H460 lung = test system: NCI-H460 lung
KM12 colon = test system: KM12 colon
SF-268 CNS = test system: SF-268 CNS
K-562 leukemia = test system: K-562 leukemia
RXF 393 renal = test system: RXF 393 renal
SN12C renal = test system: SN12C renal
RPMI-8226 leukemia = test system: RPMI-8226 leukemia
SW-620 colon = test system: SW-620 colon
SF-539 CNS = test system: SF-539 CNS
M14 melanoma = test system: M14 melanoma
CAKI-1 renal = test system: CAKI-1 renal
COLO 205 colon = test system: COLO 205 colon
ACHN renal = test system: ACHN renal
IGROV1 ovarian = test system: IGROV1 ovarian
SK-MEL-2 melanoma = test system: SK-MEL-2 melanoma
OVCAR-5 ovarian = test system: OVCAR-5 ovarian
NCI-H226 lung = test system: NCI-H226 lung
NCI-H23 lung = test system: NCI-H23 lung
A549 NSCLC = test system: A549 NSCLC
SK-MEL-28 melanoma = test system: SK-MEL-28 melanoma
EKVX NSCLC = test system: EKVX NSCLC
SNB-75 CNS = test system: SNB-75 CNS
HS 578T breast = test system: HS 578T breast
A498 renal = test system: A498 renal
TK-10 renal = test system: TK-10 renal
UACC-257 melanoma = test system: UACC-257 melanoma
MCF7 breast = test system: MCF7 breast
DU-145 prostate = test system: DU-145 prostate
MALME-3M melanoma = test system: MALME-3M melanoma
OVCAR-8 ovarian = test system: OVCAR-8 ovarian
SF-295 CNS = test system: SF-295 CNS
NCI-H522 lung = test system: NCI-H522 lung
MDA-MB-435 = test system: MDA-MB-435
T-47D breast = test system: T-47D breast
HOP-62 NSCLC = test system: HOP-62 NSCLC
HCT-15 colon = test system: HCT-15 colon
SNB-19 CNS = test system: SNB-19 CNS
BT-549 breast = test system: BT-549 breast

CC(C)(C)[Si](C)(C)OCCC1CC2(S(=O)(=O)C3=CC=C=C=C3)ON1CC2S(=O)(=O)c1ccccc1 (stereo not drawn)
TGI (SK-OV-3 ovarian): > 100 µM | TGI (U251 CNS): > 100 µM

Cc1nc2ccccc2c(/C=C/c2ccccc2)c1C(=O)/C=C/c1ccc(Cl)cc1
GI50 (NCI/ADR-RES ovarian): 1.81 µM | TGI (NCI/ADR-RES ovarian): 4.88 µM | GI50 (CCRF-CEM leukemia): 0.481 µM | TGI (CCRF-CEM leukemia): 5.24 µM | GI50 (HL-60(TB) leukemia): 0.871 µM | TGI (HL-60(TB) leukemia): 3.12 µM | GI50 (SK-OV-3 ovarian): > 100 µM | TGI (SK-OV-3 ovarian): > 100 µM | GI50 (HCT-116 colon): 0.485 µM | TGI (HCT-116 colon): 1.81 µM | GI50 (OVCAR-4 ovarian): 2.36 µM | TGI (OVCAR-4 ovarian): > 100 µM | GI50 (SR leukemia): 0.54 µM | TGI (SR leukemia): 3.75 µM | GI50 (786-0 renal): 1.58 µM | TGI (786-0 renal): 2.99 µM | GI50 (UACC-62 melanoma): 1.5 µM | TGI (UACC-62 melanoma): 3.25 µM | GI50 (HT29 colon): 0.9 µM | TGI (HT29 colon): 6.36 µM | GI50 (SK-MEL-5 melanoma): 1.62 µM | TGI (SK-MEL-5 melanoma): 3.04 µM | GI50 (MOLT-4 leukemia): 1.09 µM | TGI (MOLT-4 leukemia): 6.49 µM | GI50 (U251 CNS): 1.51 µM | TGI (U251 CNS): 2.88 µM | GI50 (UO-31 renal): 1.28 µM | TGI (UO-31 renal): 2.55 µM | GI50 (OVCAR-3 ovarian): 1.48 µM | TGI (OVCAR-3 ovarian): 2.91 µM | GI50 (LOX IMVI melanoma): 1.23 µM | TGI (LOX IMVI melanoma): 2.49 µM | GI50 (MDA-MB-231 breast): 1.46 µM | TGI (MDA-MB-231 breast): 4 µM | GI50 (HCC-2998 colon): 1.81 µM | TGI (HCC-2998 colon): 3.35 µM | GI50 (NCI-H460 lung): 1.51 µM | TGI (NCI-H460 lung): 3.29 µM | GI50 (KM12 colon): 1.86 µM | TGI (KM12 colon): 4.78 µM | GI50 (SF-268 CNS): 3.15 µM | TGI (SF-268 CNS): > 100 µM | GI50 (K-562 leukemia): 0.868 µM | TGI (K-562 leukemia): 4.87 µM | GI50 (RXF 393 renal): 1.28 µM | TGI (RXF 393 renal): 2.64 µM | GI50 (SN12C renal): 1.71 µM | TGI (SN12C renal): 4.39 µM | GI50 (RPMI-8226 leukemia): 0.784 µM | TGI (RPMI-8226 leukemia): 3.58 µM | GI50 (SW-620 colon): 1.71 µM | TGI (SW-620 colon): 5.72 µM

O=c1oc2c(cc1-c1ccccc1)C(O)Oc1ccccc1-2 (stereo not drawn)
GI50 (SF-539 CNS): 12.4 µM | TGI (SF-539 CNS): 98 µM | GI50 (M14 melanoma): 3.32 µM | TGI (M14 melanoma): 14.5 µM | GI50 (CAKI-1 renal): 5.09 µM | TGI (CAKI-1 renal): > 100 µM | GI50 (COLO 205 colon): 7.72 µM | TGI (COLO 205 colon): 25.9 µM | GI50 (HL-60(TB) leukemia): 2.6 µM | TGI (HL-60(TB) leukemia): 26.8 µM | GI50 (SK-OV-3 ovarian): 10.2 µM | TGI (SK-OV-3 ovarian): 75.7 µM | GI50 (ACHN renal): 20.4 µM | TGI (ACHN renal): > 100 µM | GI50 (HCT-116 colon): 3.9 µM | TGI (HCT-116 colon): 34.6 µM | GI50 (OVCAR-4 ovarian): 14.8 µM | TGI (OVCAR-4 ovarian): 70.6 µM | GI50 (IGROV1 ovarian): 10.4 µM | TGI (IGROV1 ovarian): 91.9 µM | GI50 (SR leukemia): 2.89 µM | TGI (SR leukemia): 13.7 µM | GI50 (786-0 renal): 11.6 µM | TGI (786-0 renal): > 100 µM | GI50 (SK-MEL-2 melanoma): 5.81 µM | TGI (SK-MEL-2 melanoma): 30.6 µM | GI50 (UACC-62 melanoma): 12.8 µM | TGI (UACC-62 melanoma): 39.7 µM | GI50 (HT29 colon): 3.21 µM | TGI (HT29 colon): > 100 µM | GI50 (OVCAR-5 ovarian): 31.3 µM | TGI (OVCAR-5 ovarian): > 100 µM | GI50 (NCI-H226 lung): 28.8 µM | TGI (NCI-H226 lung): > 100 µM | GI50 (NCI-H23 lung): 7.94 µM | TGI (NCI-H23 lung): 25 µM | GI50 (A549 NSCLC): 7.84 µM | TGI (A549 NSCLC): 95.8 µM | GI50 (SK-MEL-28 melanoma): 3.1 µM | TGI (SK-MEL-28 melanoma): 25 µM | GI50 (SK-MEL-5 melanoma): 3.8 µM | TGI (SK-MEL-5 melanoma): 16.5 µM | GI50 (EKVX NSCLC): 28.1 µM | TGI (EKVX NSCLC): > 100 µM | GI50 (SNB-75 CNS): 3.54 µM | TGI (SNB-75 CNS): 29 µM | GI50 (U251 CNS): 7.92 µM | TGI (U251 CNS): > 100 µM | GI50 (UO-31 renal): 11.5 µM | TGI (UO-31 renal): 52.3 µM | GI50 (HS 578T breast): 13.4 µM | TGI (HS 578T breast): > 100 µM | GI50 (A498 renal): 7.98 µM | TGI (A498 renal): 44.7 µM | GI50 (OVCAR-3 ovarian): 2.6 µM | TGI (OVCAR-3 ovarian): > 100 µM | GI50 (LOX IMVI melanoma): 13 µM | TGI (LOX IMVI melanoma): > 100 µM | GI50 (MDA-MB-231 breast): 15.5 µM | TGI (MDA-MB-231 breast): > 100 µM | GI50 (TK-10 renal): 6.46 µM | TGI (TK-10 renal): > 100 µM | GI50 (UACC-257 melanoma): 12.4 µM | TGI (UACC-257 melanoma): 35.4 µM | GI50 (HCC-2998 colon): 3.55 µM | TGI (HCC-2998 colon): 19.3 µM | GI50 (NCI-H460 lung): 4.12 µM | TGI (NCI-H460 lung): > 100 µM | GI50 (MCF7 breast): 4.29 µM | TGI (MCF7 breast): > 100 µM | GI50 (DU-145 prostate): 18.9 µM | TGI (DU-145 prostate): > 100 µM | GI50 (MALME-3M melanoma): 9.19 µM | TGI (MALME-3M melanoma): 58.5 µM | GI50 (KM12 colon): 3.04 µM | TGI (KM12 colon): 23.4 µM | GI50 (OVCAR-8 ovarian): 6.89 µM | TGI (OVCAR-8 ovarian): > 100 µM | GI50 (SF-295 CNS): 8.79 µM | TGI (SF-295 CNS): 97.1 µM | GI50 (NCI-H522 lung): 4.97 µM | TGI (NCI-H522 lung): 21.2 µM | GI50 (SF-268 CNS): 16.3 µM | TGI (SF-268 CNS): 83.6 µM | GI50 (MDA-MB-435): 1.62 µM | TGI (MDA-MB-435): > 100 µM | GI50 (T-47D breast): 4.41 µM | TGI (T-47D breast): 22.3 µM | GI50 (K-562 leukemia): 4.27 µM | TGI (K-562 leukemia): > 100 µM | GI50 (RXF 393 renal): 2.42 µM | TGI (RXF 393 renal): 6.41 µM | GI50 (SN12C renal): 20.5 µM | TGI (SN12C renal): > 100 µM | GI50 (HOP-62 NSCLC): 10.3 µM | TGI (HOP-62 NSCLC): 78.8 µM | GI50 (SW-620 colon): 4.37 µM | TGI (SW-620 colon): > 100 µM | GI50 (HCT-15 colon): 5.04 µM | TGI (HCT-15 colon): > 100 µM | GI50 (SNB-19 CNS): 6.38 µM | TGI (SNB-19 CNS): > 100 µM | GI50 (BT-549 breast): 17.4 µM | TGI (BT-549 breast): > 100 µM

Reference: PubChem BioAssay (NCI)
